# Experiments:
# [1] = test system: pancreatic β cells (islets of Langerhans); assay: Glucose-stimulated insulin secretion from isolated islets of Langerhans; assay type: cell-based, mouse; settings: for insulin secretion on stimulation with glucose: 24 hr with 10 or 100 nM GW501516, 16.7 mM glucose, 1 hr
# Method: Animals, 6-week-old male C57BL/6J and Lepr^db/Lepr^db mice, were purchased from Clea Japan, Inc., and kept under the following conditions: room temperature, 25° C.; humidity, 60±10%; and 12 hr light/dark cycles (light period, 08:00 to 20:00). All animals were tamed for one week and then subjected to tests. The animals were given free access to food (commercial lab chow, pellet form CE-2, Clea Japan, Inc.) and water. Male C57BL/6J and Lepr^db/Lepr^db mice were used. After clamping the common bile duct at a point close to the duodenum outlet under Nembutal anesthetization, 1 mg/mL collagenase (Wako Pure Chemical Industries, Ltd., Japan) was injected into the common bile duct at a liver side. The pancreas was taken out and incubated at 37° C. for 13 min. Thereafter, Hank's balanced salt solution was added, the pancreas tissue suspension was shaken and then centrifuged to remove supernatants. The pancreas tissue was resuspended in Hank's balanced salt solution, and then subjected to filtration followed by addition of Hank's balanced salt solution to make the tissue suspension volume 35 mL. The resultant tissue suspension was mixed and then allowed to stand for 5 min. Supernatants were removed with an aspirator except that 5 mL of the solution was retained, and the remaining solution was remixed with Hank's balanced salt solution to make the tissue suspension volume 35 mL. […] After incubation in a Krebs-Ringer bicarbonate buffer (KRBB, 119 mM NaCl, 4.74 mM KCl, 2.54 mM CaCl2, 1.19 mM MgCl2, 1.19 mM KH2PO4, 25 mM NaHCO3, and 10 mM HEPES, pH 7.4) containing 2.8 mM glucose at 37° C. for 1 hr, the islets of Langerhans were dispensed in a 24-well plate at 10 islets per well, and incubated in KRBB containing 2.8, 5.6 or 16.7 mM glucose, respectively, at 37° C. for 1 hr. Each supernatant sample collected was assayed for insulin with rat insulin [^125I] Biotrak Assay System (Amersham).
# [2] = test system: obese animals; settings: cited from earlier work
structure (smiles),measurement,setting,value
"Cc1cc(SCc2sc(-c3ccc(C(F)(F)F)cc3)nc2C)ccc1OCC(=O)O [GW501516, 2-{2-methyl-4-[({4-methyl-2-[4-(trifluoromethyl)phenyl]-1,3-thiazol-5-yl}methyl)thio]phenoxy}acetic acid]",dose dependence of insulin secretion when stimulated with elevated glucose levels,"[1]; 10 or 100 nM GW501516, elevated glucose levels",increased dose-dependently insulin secretion
same,insulin secretion on stimulation with glucose,[1]; islets from C57BL/6J mice,significant insulin secretion
same,insulin secretion on stimulation with glucose,[1]; islets from Lepr^db/Lepr^db mice,significant insulin secretion
same,effect on diabetes (plasma glucose and blood insulin levels),[2]; genetically obese animals,improve diabetes as revealed by the decrease in plasma glucose and blood insulin levels
same,effect on obesity and insulin resistance,[2]; obese animals induced by high-fat dieting,ameliorate obesity and insulin resistance

# Source: US20080207710A1, “Insulin Secretagogue Drugs” (TOUDAI TLO, LTD., priority 2004, published 2008)
